# In PubChem BioAssay (NCI):
#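 In this assay, cells in 96-well plates receive the compound at five concentrations for 48 hours. Endpoints are linearly interpolated between the surrounding concentrations. TGI: concentration producing complete growth inhibition.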
# What was measured:
# Experiment in all cases: inhibition of tumour cell growth, NCI panel, 48 h
# 786-0 renal = system: 786-0 renal
# A498 renal = system: A498 renal
# A549 NSCLC = system: A549 NSCLC
# ACHN renal = system: ACHN renal
# BT-549 breast = system: BT-549 breast
# CAKI-1 renal = system: CAKI-1 renal
# CCRF-CEM leukemia = system: CCRF-CEM leukemia
# COLO 205 colon = system: COLO 205 colon
# DU-145 prostate = system: DU-145 prostate
# EKVX NSCLC = system: EKVX NSCLC
# HCC-2998 colon = system: HCC-2998 colon
# HCT-116 colon = system: HCT-116 colon
# HCT-15 colon = system: HCT-15 colon
# HOP-62 NSCLC = system: HOP-62 NSCLC
# HOP-92 NSCLC = system: HOP-92 NSCLC
# HS 578T breast = system: HS 578T breast
# HT29 colon = system: HT29 colon
# IGROV1 ovarian = system: IGROV1 ovarian
# KM12 colon = system: KM12 colon
# LOX IMVI melanoma = system: LOX IMVI melanoma
# M14 melanoma = system: M14 melanoma
# MALME-3M melanoma = system: MALME-3M melanoma
# MCF7 breast = system: MCF7 breast
# MDA-MB-231 breast = system: MDA-MB-231 breast
# MDA-MB-435 = system: MDA-MB-435
# MDA-N = system: MDA-N
# MOLT-4 leukemia = system: MOLT-4 leukemia
# NCI-H226 lung = system: NCI-H226 lung
# NCI-H23 lung = system: NCI-H23 lung
# NCI-H522 lung = system: NCI-H522 lung
# NCI/ADR-RES ovarian = system: NCI/ADR-RES ovarian
# OVCAR-3 ovarian = system: OVCAR-3 ovarian
# OVCAR-4 ovarian = system: OVCAR-4 ovarian
# OVCAR-5 ovarian = system: OVCAR-5 ovarian
# OVCAR-8 ovarian = system: OVCAR-8 ovarian
# PC-3 prostate = system: PC-3 prostate
# RPMI-8226 leukemia = system: RPMI-8226 leukemia
# RXF 393 renal = system: RXF 393 renal
# SF-268 CNS = system: SF-268 CNS
# SF-295 CNS = system: SF-295 CNS
# SF-539 CNS = system: SF-539 CNS
# SK-MEL-2 melanoma = system: SK-MEL-2 melanoma
# SK-MEL-28 melanoma = system: SK-MEL-28 melanoma
# SK-MEL-5 melanoma = system: SK-MEL-5 melanoma
# SK-OV-3 ovarian = system: SK-OV-3 ovarian
# SN12C renal = system: SN12C renal
# SNB-19 CNS = system: SNB-19 CNS
# SR leukemia = system: SR leukemia
# SW-620 colon = system: SW-620 colon
# T-47D breast = system: T-47D breast
# TK-10 renal = system: TK-10 renal
# U251 CNS = system: U251 CNS
# UACC-257 melanoma = system: UACC-257 melanoma
# UACC-62 melanoma = system: UACC-62 melanoma
# UO-31 renal = system: UO-31 renal
# HL-60(TB) leukemia = system: HL-60(TB) leukemia
# K-562 leukemia = system: K-562 leukemia
# NCI-H460 lung = system: NCI-H460 lung
# SNB-75 CNS = system: SNB-75 CNS
smiles,measurement,setting,value
CC1(C)C=Cc2c(cc3oc4ccc5c(c4c(=O)c3c2O)C=CC(C)(C)O5)O1,TGI,786-0 renal,> 100 µM
same,TGI,A498 renal,> 100 µM
same,TGI,A549 NSCLC,> 100 µM
same,TGI,ACHN renal,> 100 µM
same,TGI,BT-549 breast,> 100 µM
same,TGI,CAKI-1 renal,> 100 µM
same,TGI,CCRF-CEM leukemia,> 100 µM
same,TGI,COLO 205 colon,> 100 µM
same,TGI,DU-145 prostate,> 100 µM
same,TGI,EKVX NSCLC,> 100 µM
same,TGI,HCC-2998 colon,> 100 µM
same,TGI,HCT-116 colon,> 100 µM
same,TGI,HCT-15 colon,> 100 µM
same,TGI,HOP-62 NSCLC,> 100 µM
same,TGI,HOP-92 NSCLC,> 100 µM
same,TGI,HS 578T breast,> 100 µM
same,TGI,HT29 colon,> 100 µM
same,TGI,IGROV1 ovarian,> 100 µM
same,TGI,KM12 colon,> 100 µM
same,TGI,LOX IMVI melanoma,> 100 µM
same,TGI,M14 melanoma,> 100 µM
same,TGI,MALME-3M melanoma,> 100 µM
same,TGI,MCF7 breast,> 100 µM
same,TGI,MDA-MB-231 breast,> 100 µM
same,TGI,MDA-MB-435,> 100 µM
same,TGI,MDA-N,> 100 µM
same,TGI,MOLT-4 leukemia,> 100 µM
same,TGI,NCI-H226 lung,> 100 µM
same,TGI,NCI-H23 lung,> 100 µM
same,TGI,NCI-H522 lung,> 100 µM
same,TGI,NCI/ADR-RES ovarian,> 100 µM
same,TGI,OVCAR-3 ovarian,> 100 µM
same,TGI,OVCAR-4 ovarian,> 100 µM
same,TGI,OVCAR-5 ovarian,> 100 µM
same,TGI,OVCAR-8 ovarian,> 100 µM
same,TGI,PC-3 prostate,> 100 µM
same,TGI,RPMI-8226 leukemia,> 100 µM
same,TGI,RXF 393 renal,> 100 µM
same,TGI,SF-268 CNS,> 100 µM
same,TGI,SF-295 CNS,> 100 µM
same,TGI,SF-539 CNS,> 100 µM
same,TGI,SK-MEL-2 melanoma,> 100 µM
same,TGI,SK-MEL-28 melanoma,> 100 µM
same,TGI,SK-MEL-5 melanoma,> 100 µM
same,TGI,SK-OV-3 ovarian,> 100 µM
same,TGI,SN12C renal,> 100 µM
same,TGI,SNB-19 CNS,> 100 µM
same,TGI,SR leukemia,> 100 µM
same,TGI,SW-620 colon,> 100 µM
same,TGI,T-47D breast,> 100 µM
same,TGI,TK-10 renal,> 100 µM
same,TGI,U251 CNS,> 100 µM
same,TGI,UACC-257 melanoma,> 100 µM
same,TGI,UACC-62 melanoma,> 100 µM
same,TGI,UO-31 renal,> 100 µM
Sc1ccc2ccccc2c1CNCc1ccccc1,TGI,786-0 renal,37 µM
same,TGI,A498 renal,95.5 µM
same,TGI,A549 NSCLC,> 100 µM
same,TGI,ACHN renal,57.9 µM
same,TGI,BT-549 breast,48.7 µM
same,TGI,CAKI-1 renal,43.8 µM
same,TGI,CCRF-CEM leukemia,54.1 µM
same,TGI,COLO 205 colon,28.2 µM
same,TGI,DU-145 prostate,69.3 µM
same,TGI,EKVX NSCLC,78.3 µM
same,TGI,HCC-2998 colon,> 100 µM
same,TGI,HCT-116 colon,33.4 µM
same,TGI,HCT-15 colon,88.6 µM
same,TGI,HL-60(TB) leukemia,26.9 µM
same,TGI,HOP-62 NSCLC,34.9 µM
same,TGI,HS 578T breast,67.2 µM
same,TGI,HT29 colon,> 100 µM
same,TGI,IGROV1 ovarian,6.97 µM
same,TGI,K-562 leukemia,39 µM
same,TGI,KM12 colon,30.8 µM
same,TGI,LOX IMVI melanoma,18.6 µM
same,TGI,M14 melanoma,27.6 µM
same,TGI,MALME-3M melanoma,78.5 µM
same,TGI,MCF7 breast,> 100 µM
same,TGI,MDA-MB-231 breast,43.9 µM
same,TGI,MDA-MB-435,29.9 µM
same,TGI,MDA-N,37.6 µM
same,TGI,MOLT-4 leukemia,6.59 µM
same,TGI,NCI-H226 lung,12.3 µM
same,TGI,NCI-H23 lung,59.7 µM
same,TGI,NCI-H460 lung,> 100 µM
same,TGI,NCI-H522 lung,18.3 µM
same,TGI,NCI/ADR-RES ovarian,98.1 µM
same,TGI,OVCAR-3 ovarian,31.4 µM
same,TGI,OVCAR-4 ovarian,40.6 µM
same,TGI,OVCAR-5 ovarian,34 µM
same,TGI,OVCAR-8 ovarian,65.8 µM
same,TGI,PC-3 prostate,> 100 µM
same,TGI,RPMI-8226 leukemia,31.9 µM
same,TGI,RXF 393 renal,26 µM
same,TGI,SF-268 CNS,30.3 µM
same,TGI,SF-295 CNS,47.3 µM
same,TGI,SF-539 CNS,29.3 µM
same,TGI,SK-MEL-2 melanoma,45.5 µM
same,TGI,SK-MEL-28 melanoma,69.7 µM
same,TGI,SK-MEL-5 melanoma,25.3 µM
same,TGI,SK-OV-3 ovarian,41.1 µM
same,TGI,SN12C renal,25.7 µM
same,TGI,SNB-19 CNS,> 100 µM
same,TGI,SNB-75 CNS,44.2 µM
same,TGI,SR leukemia,15.4 µM
same,TGI,SW-620 colon,> 100 µM
same,TGI,T-47D breast,> 100 µM
same,TGI,TK-10 renal,> 100 µM
same,TGI,U251 CNS,30.8 µM
same,TGI,UACC-257 melanoma,> 100 µM
same,TGI,UACC-62 melanoma,28.6 µM
same,TGI,UO-31 renal,26.9 µM
